Measurements published in patent US9695155B2, “Herbicidal substituted pyrimidinyloxy benzene compounds” (E. I. DU PONT DE NEMOURS AND COMPANY, priority 2013, dated 2017).

Experiments:
canarygrass [1] = assay: Test D preemergence; format: in vivo, Phalaris minor; conditions: Phalaris minor, pre-emergence
From the text: (§1) Seeds of plant species selected from bluegrass (annual bluegrass, Poa annua), blackgrass (Alopecurus myosuroides), canarygrass (littleseed canarygrass, Phalaris minor), chickweed (common chickweed, Stellaria media), galium (catchweed bedstraw, Galium aparine), bromegrass, downy (downy bromegrass, Bromus tectorum), field poppy (Papaver rhoeas), field violet (Viola arvensis), green foxtail (Setaria viridis), deadnettle (henbit deadnettle, Lamium amplexicaule), Italian ryegrass (Lolium multiflorum), kochia (Kochia scoparia), lambsquarters (Chenopodium album), oilseed rape (Brassica napus), pigweed (Amaranthus retroflexus), chamomile (scentless chamomile, Matricaria inodora), Russian thistle (Salsola kali), speedwell (bird's-eye speedwell, Veronica persica), spring barley (Hordeum vulgare), spring wheat (Triticum aestivum), wild buckwheat (Polygonum convolvulus), wild mustard (Sinapis arvensis), wild oat (Avena fatua), wild radish (Raphanus raphanistrum), windgrass (Apera spica-venti), winter barley (Hordeum vulgare), and winter wheat (Triticum aestivum) were planted into a silt loam soil and treated preemergence with test chemicals formulated in a non-phytotoxic solvent mixture which included a surfactant.
(§2) At the same time, these species were planted in pots containing Redi-Earth® planting medium (Scotts Company, 14111 Scottslawn Road, Marysville, Ohio 43041) comprising spaghnum peat moss, vermiculite, wetting agent and starter nutrients and treated with postemergence applications of the test chemicals formulated in the same manner. Plants ranged in height from 2 to 18 cm (1- to 4-leaf stage). Treated plants and controls were maintained in a controlled growth environment for 7 to 21 days after which time all species were compared to controls and visually evaluated. Plant response ratings, summarized in Table D, are based on a scale of 0 to 100 where 0 is no effect and 100 is complete control. A dash (-) response means no test result.

galium [2] = assay: Test D preemergence; format: in vivo, Galium aparine; conditions: Galium, pre-emergence
From the text: as §1, §2

bromegrass, downy = assay: Test D preemergence; format: in vivo, Bromus tectorum; conditions: Bromus tectorum, pre-emergence
From the text: as §1, §2

kochia [3] = assay: Test D preemergence; format: in vivo, Kochia scoparia; conditions: Bassia scoparia, pre-emergence
From the text: as §1, §2

wild radish = assay: Test D preemergence; format: in vivo, Raphanus raphanistrum; conditions: Raphanus raphanistrum, pre-emergence
From the text: as §1, §2

windgrass = assay: Test D preemergence; format: in vivo, Apera spica-venti; conditions: Apera spica-venti, pre-emergence
From the text: as §1, §2

bluegrass = assay: Test D postemergence; format: in vivo, Poa annua; conditions: Poa annua, post-emergence, Postemergence, scale 0 to 100 (0 no effect, 100 complete control), read-out: Plant response rating, Bluegrass
From the text: as §1, §2

canarygrass [4] = assay: Test D postemergence; format: in vivo, Phalaris minor; conditions: Phalaris minor, post-emergence
From the text: as §1, §2

galium [5] = assay: Test D postemergence; format: in vivo, Galium aparine; conditions: Galium, post-emergence
From the text: as §1, §2

green foxtail = assay: Test D postemergence; format: in vivo, Setaria viridis; conditions: Setaria viridis, post-emergence
From the text: as §1, §2

kochia [6] = assay: Test D postemergence; format: in vivo, Kochia scoparia; conditions: Bassia scoparia, post-emergence
From the text: as §1, §2

Fc1cccc(Oc2ncc(Cl)cn2)c1-n1cc(C(F)F)nn1 [Compound 141, 5-chloro-2-[2-[4-(difluoromethyl)-1H-1,2,3-triazol-1-yl]-3-fluorophenoxy]pyrimidine]
pest or weed control at 16 g/ha (canarygrass [1]; 16 g ai/ha, scale 0 (no effect) to 100 (complete control), read-out: Plant response rating, Canarygrass): 35% | pest or weed control at 31 g/ha (canarygrass [1]; 31 g ai/ha, scale 0-100, read-out: Plant response rating, Canarygrass): 75% | pest or weed control at 62 g/ha (canarygrass [1]; 62 g ai/ha, scale 0-100, read-out: Plant response rating, Canarygrass): 100% | pest or weed control at 125 g/ha (canarygrass [1]; 125 g ai/ha, scale 0-100, read-out: Plant response rating, Canarygrass): 100% | pest or weed control at 16 g/ha (galium [2]; 16 g ai/ha, scale 0 (no effect) to 100 (complete control), read-out: Plant response rating, Galium): 75% | pest or weed control at 31 g/ha (galium [2]; 31 g ai/ha, scale 0-100, read-out: Plant response rating, Galium): 100% | pest or weed control at 62 g/ha (galium [2]; 62 g ai/ha, scale 0-100, read-out: Plant response rating, Galium): 100% | pest or weed control at 125 g/ha (galium [2]; 125 g ai/ha, scale 0-100, read-out: Plant response rating, Galium): 100% | pest or weed control at 16 g/ha (bromegrass, downy; 16 g ai/ha, scale 0 (no effect) to 100 (complete control), read-out: Plant response rating, Bromegrass, Downy): 30% | pest or weed control at 31 g/ha (bromegrass, downy; 31 g ai/ha, scale 0-100, read-out: Plant response rating, Bromegrass, Downy): 45% | pest or weed control at 62 g/ha (bromegrass, downy; 62 g ai/ha, scale 0-100, read-out: Plant response rating, Bromegrass, Downy): 85% | pest or weed control at 125 g/ha (bromegrass, downy; 125 g ai/ha, scale 0-100, read-out: Plant response rating, Bromegrass, Downy): 95% | pest or weed control at 16 g/ha (kochia [3]; 16 g ai/ha, scale 0 (no effect) to 100 (complete control), read-out: Plant response rating, Kochia): 85% | pest or weed control at 31 g/ha (kochia [3]; 31 g ai/ha, scale 0-100, read-out: Plant response rating, Kochia): 100% | pest or weed control at 62 g/ha (kochia [3]; 62 g ai/ha, scale 0-100, read-out: Plant response rating, Kochia): 100% | pest or weed control at 125 g/ha (kochia [3]; 125 g ai/ha, scale 0-100, read-out: Plant response rating, Kochia): 100% | pest or weed control at 16 g/ha (wild radish; 16 g ai/ha, scale 0 (no effect) to 100 (complete control), read-out: Plant response rating, Radish, Wild): 40% | pest or weed control at 31 g/ha (wild radish; 31 g ai/ha, scale 0 (no effect) to 100 (complete control), read-out: Plant response rating, Radish, Wild): 98% | pest or weed control at 62 g/ha (wild radish; 62 g ai/ha, scale 0-100, read-out: Plant response rating, Radish, Wild): 100% | pest or weed control at 125 g/ha (wild radish; 125 g ai/ha, scale 0-100, read-out: Plant response rating, Radish, Wild): 100% | pest or weed control at 16 g/ha (windgrass; 16 g ai/ha, scale 0 (no effect) to 100 (complete control), read-out: Plant response rating, Windgrass): 35% | pest or weed control at 31 g/ha (windgrass; 31 g ai/ha, scale 0 (no effect) to 100 (complete control), read-out: Plant response rating, Windgrass): 70% | pest or weed control at 62 g/ha (windgrass; 62 g ai/ha, scale 0-100, read-out: Plant response rating, Windgrass): 85% | pest or weed control at 125 g/ha (windgrass; 125 g ai/ha, scale 0-100, read-out: Plant response rating, Windgrass): 100% | pest or weed control at 16 g/ha (bluegrass; 16 g ai/ha): 5% | pest or weed control at 31 g/ha (bluegrass; 31 g ai/ha): 20% | pest or weed control at 62 g/ha (bluegrass; 62 g ai/ha): 35% | pest or weed control at 125 g/ha (bluegrass; 125 g ai/ha): 40% | pest or weed control at 16 g/ha (canarygrass [4]; 16 g ai/ha, scale 0-100, read-out: Plant response rating, Canarygrass): 10% | pest or weed control at 31 g/ha (canarygrass [4]; 31 g ai/ha, scale 0 to 100 (0 no effect, 100 complete control), read-out: Plant response rating, Canarygrass): 25% | pest or weed control at 62 g/ha (canarygrass [4]; 62 g ai/ha, scale 0 to 100 (0 no effect, 100 complete control), read-out: Plant response rating, Canarygrass): 35% | pest or weed control at 125 g/ha (canarygrass [4]; 125 g ai/ha, scale 0 to 100 (0 no effect, 100 complete control), read-out: Plant response rating, Canarygrass): 55% | pest or weed control at 16 g/ha (galium [5]; 16 g ai/ha, scale 0-100, read-out: Plant response rating, Galium): 95% | pest or weed control at 31 g/ha (galium [5]; 31 g ai/ha, scale 0 to 100 (0 no effect, 100 complete control), read-out: Plant response rating, Galium): 98% | pest or weed control at 62 g/ha (galium [5]; 62 g ai/ha, scale 0 to 100 (0 no effect, 100 complete control), read-out: Plant response rating, Galium): 98% | pest or weed control at 125 g/ha (galium [5]; 125 g ai/ha, scale 0 to 100 (0 no effect, 100 complete control), read-out: Plant response rating, Galium): 98% | pest or weed control at 16 g/ha (green foxtail; 16 g ai/ha, scale 0-100, read-out: Plant response rating, Foxtail, Green): 15% | pest or weed control at 31 g/ha (green foxtail; 31 g ai/ha, scale 0 to 100 (0 no effect, 100 complete control), read-out: Plant response rating, Foxtail, Green): 20% | pest or weed control at 62 g/ha (green foxtail; 62 g ai/ha, scale 0 to 100 (0 no effect, 100 complete control), read-out: Plant response rating, Foxtail, Green): 45% | pest or weed control at 125 g/ha (green foxtail; 125 g ai/ha, scale 0 to 100 (0 no effect, 100 complete control), read-out: Plant response rating, Foxtail, Green): 100% | pest or weed control at 16 g/ha (kochia [6]; 16 g ai/ha, scale 0-100, read-out: Plant response rating, Kochia): 70% | pest or weed control at 31 g/ha (kochia [6]; 31 g ai/ha, scale 0 to 100 (0 no effect, 100 complete control), read-out: Plant response rating, Kochia): 85% | pest or weed control at 62 g/ha (kochia [6]; 62 g ai/ha, scale 0 to 100 (0 no effect, 100 complete control), read-out: Plant response rating, Kochia): 100% | pest or weed control at 125 g/ha (kochia [6]; 125 g ai/ha, scale 0 to 100 (0 no effect, 100 complete control), read-out: Plant response rating, Kochia): 100%
